Experimental findings from US12691101B2, “Compound and method for preventing or treating of respiratory diseases comprising the same as an active ingredient” (YONSEI UNIVERSITY, UNIVERSITY - INDUSTRY FOUNDATION (UIF), priority 2019, dated 2026) are described below.

In one assay the target is T1, human wild-type (WT)-pendrin (Homo sapiens, UniProt O43511).
T1 construct: expressed in transfected cells
T1 sequence (O43511 1-780): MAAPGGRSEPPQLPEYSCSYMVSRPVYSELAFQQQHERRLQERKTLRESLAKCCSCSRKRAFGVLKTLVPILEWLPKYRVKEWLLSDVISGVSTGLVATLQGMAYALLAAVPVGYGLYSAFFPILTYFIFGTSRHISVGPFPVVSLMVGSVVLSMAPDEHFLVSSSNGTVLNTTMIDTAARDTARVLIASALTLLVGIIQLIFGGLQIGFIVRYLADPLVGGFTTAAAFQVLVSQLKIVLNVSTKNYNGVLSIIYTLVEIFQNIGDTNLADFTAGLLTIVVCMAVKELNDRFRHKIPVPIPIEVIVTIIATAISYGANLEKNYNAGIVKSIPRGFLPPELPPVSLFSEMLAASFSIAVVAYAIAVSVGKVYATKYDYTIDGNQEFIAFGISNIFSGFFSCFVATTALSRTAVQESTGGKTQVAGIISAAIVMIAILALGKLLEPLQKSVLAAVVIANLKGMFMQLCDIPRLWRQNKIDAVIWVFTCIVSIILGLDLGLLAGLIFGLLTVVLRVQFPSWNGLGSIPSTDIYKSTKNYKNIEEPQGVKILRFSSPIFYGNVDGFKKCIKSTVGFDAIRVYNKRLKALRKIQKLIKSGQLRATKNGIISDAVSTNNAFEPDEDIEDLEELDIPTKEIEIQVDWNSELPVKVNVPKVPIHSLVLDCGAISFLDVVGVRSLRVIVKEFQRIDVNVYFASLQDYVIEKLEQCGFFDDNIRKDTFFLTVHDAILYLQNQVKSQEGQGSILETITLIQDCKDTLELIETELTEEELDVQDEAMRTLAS
Briefly: Pendrin-mediated Cl^−/I^− exchange activity, YFP fluorescence in CHO-K1 cells. It counts as cell-based. To be noted: 30 μM. As to the method:
Chinese hamster ovary (CHO)-K1 cells were maintained in a DMEM medium containing 10% fetal bovine serum (FBS), 100 units/ml penicillin and 100 100 μg/ml streptomycin. CHO-K1 cells were stably transfected with pcDNA3.1 encoding halide sensor YFP-H148Q/I152L/F46L and human wild-type (WT)-pendrin. For distribution of primary culture of human nasal cavity epithelium (HNE) cells, passage-2 cells were seeded into transwell-transparent culture inserts with a pore size of 0.45 μm (Costar Co., Cambridge, MA) at a density of 2×10^5 cells/cm^2. The cells were maintained in a 1:1 mixture of Dulbecco's modified Eagle's medium (Lonza, Walkersville, MD) and bronchial epithelial growth medium (Lonza) supplemented with the following growth factors according to the manufacturer's instructions. After immersing the cells for the first 7 days, they were exposed to the apical air interface for the remainder of the culture period. After establishment of the air-liquid interface, the cells were used between 14 and 21 days. At all stages of culture, the cells were maintained at 37° C. under 5% CO2 in an air incubator.
CHO-K1 cells expressing human WT pendrin and YFP-F46L/H148Q/I152L were plated on a 96-well microplate at a density of 2×10^4 cells per well and cultured for 48 hours. Each well of the cell cultured 96-well plate was washed with PBS of 200 μL twice and was filled with HEPES buffer solution of 50 μL, respectively. […] After culturing at 37° C. for 10 minutes, the 96-well plate was positioned on FLUOstar Omega microplate reader (BMG Labtech, Ortenberg, Germany) for fluorescence analysis. By continuously (400 ms per point) recording fluorescence for 1 second (base line), each well was individually analyzed for pendrin-mediated I^− inflow, and then at 1 second, 50 μL of NaI-substituted HEPES buffer solution (NaI replacing NaCl) was added using a liquid injector and the YFP fluorescence was recorded for 5 seconds. The initial iodide inflow rate was determined from the initial slope of fluorescence by nonlinear regression, after injection the iodide (See FIG. 1).
For measurement of Cl^−/I^− exchange activity, YFP fluorescence was measured in pendrin and halide sensor YFP expressing CHO-K1 cells. Each well of the cell cultured 96-well plate was washed with PBS of 200 μL twice, and was filled with HEPES buffer solution (140 mM NaCl, 5 mM KCl, 1 mM MgCl2, 1 mM CaCl2, 10 mM glucose and 10 mM HEPES (pH 7.4)), respectively. […] After culturing at 37° C. for 10 minutes, the 96-well plate was positioned on FLUOstar Omega microplate reader (BMG Labtech, Ortenberg, Germany) for fluorescence analysis.
By continuously (400 ms per point) recording fluorescence for 1 second (base line), each well was individually analyzed for pendrin-mediated I^− inflow, and then at 1 second, 50 μL of NaI-substituted HEPES buffer solution (140 mM NaI, 5 mM KCl, 1 mM MgCl2, 1 mM CaCl2, 10 mM glucose and 10 mM HEPES (pH 7.4)) was added using a liquid injector and the YFP fluorescence was recorded for 5 seconds. The initial iodide inflow rate was determined from the initial slope of fluorescence by nonlinear regression, after injection the iodide.
As to `O=C(O)C(=Cc1ccco1)NC(=O)c1ccc(Br)cc1` [G16, 2-(4-Bromobenzamido)-3-(furan-2-yl)acrylate], the “Pendrin inhibitory activity at 30 μM (%)” value is 1.8%. Consider `Cc1ncsc1C=C(NC(=O)c1ccc(C(C)(C)C)cc1)C(=O)O` [G32, 2-(4-(tert-butyl)benzamido)-3-(4-methylthiazol-5-yl)acrylate], for which the “Pendrin inhibitory activity at 30 μM (%)” value stood at 2.1%.

Still in this assay, the particulars now being: CHO-K1, 30 μM; read-out: Pendrin inhibitory activity at 30 μM (%).
`COc1ccccc1C1=NC(=Cc2sc3nc(C)nc(C)c3c2C)C(=O)O1` [F113, 2-(2-Methoxyphenyl)-4-((2,4,5-trimethylthieno[2,3-d]pyrimidin-6-yl)methylene) oxazol-5(4H)-one]: the inhibition at 30 µM was found to be 3.5%. On the same count and under the same terms, for `O=C1OC(c2ccc(-c3ccccc3)cc2)=NC1=Cc1cccnc1` [F42, 2-([1,1′-biphenyl]-4-yl)-4-(pyridin-3-ylmethylene)oxazol-5(4H)-one] the value was 4.2%; for `O=C1OC(c2ccccc2)=NC1=Cc1ccc(OC(=O)c2ccco2)cc1` [F78, 4-((5-oxo-2-phenyloxazol-4(5H)-ylidene)methyl)phenylfuran-2-carboxylate], 1.7%. As to `CC(C)NS(=O)(=O)c1ccc(C2=NC(=Cc3cccs3)C(=O)O2)cc1` [F36, N-isopropyl-4-(5-oxo-4-(thiophen-2-ylmethylene)-4,5-dihydrooxazol-2-yl)benzene sulfonamide], the inhibition at 30 µM came out at 89.6%. The same measure, in the same setting: the same measure for `CC(C)(C)c1ccc(C2=NC(=Cc3cccn3-c3ccccc3)C(=O)O2)cc1` [F27, 2-(4-(tert-butyl)phenyl)-4-((1-phenyl-1H-pyrrol-2-yl)methylene)oxazol-5 (4H)-one]: 2.8%; for `CC(C)c1ccc(C2=NC(=Cc3ccsc3)C(=O)O2)cc1` [F47, 2-(4-Isopropylphenyl)-4-(thiophen-3-ylmethylene)oxazol-5(4H)-one]: 33.2%; for `Cc1cc(C)cc(C(=O)NC(=Cc2cccs2)C(=O)O)c1` [G42, 2-(3,5-Dimethylbenzamido)-3-(thiophen-2-yl)acrylate]: 2.7%. With `CC(C)(C)c1ccc(C2=NC(=Cc3cc4ccccc4[nH]3)C(=O)O2)cc1` [F140, 4-((1H-indol-2-yl)methylene)-2-(4-(tert-butyl)phenyl)oxazol-5(4H)-one], the inhibition at 30 µM was determined as 3.3%. On the same count and under the same terms, for `CCN(CC)S(=O)(=O)c1cccc(C2=NC(=Cc3cccs3)C(=O)O2)c1` [F112, N,N-diethyl-3-(5-oxo-4-(thiophen-2-ylmethylene)-4,5-dihydrooxazol-2-yl)benzene sulfonamide] the value was 3.1%. On the same count and under the same terms, the same measure for `CCCCOc1ccc(C(=O)NC(=Cc2cccs2)C(=O)O)cc1` [G36, 2-(4-Butoxybenzamido)-3-(thiophen-2-yl)acrylate]: 4.8%. Still for that read-out and setting: the same measure for `O=C1OC(C2CCCCC2)=NC1=Cc1cccs1` [F23, 2-Cyclohexyl-4-(thiophen-2-ylmethylene)oxazol-5 (4H)-one]: 2.1%; for `CC(C)(C)c1ccc(C2=NC(=Cc3cccnc3)C(=O)O2)cc1` [F40, 2-(4-(tert-butyl)phenyl)-4-(pyridin-3-ylmethylene)oxazol-5(4H)-one]: 92.3%. Regarding `CCCc1ccc(C2=NC(=Cc3ccc[nH]3)C(=O)O2)cc1` [F143, 4-((1H-pyrrol-2-yl)methylene)-2-(4-propylphenyl)oxazol-5(4H)-one], the inhibition at 30 µM is 87.4%. On the same count and under the same terms, the same measure for `COc1cc(C2=NC(=Cc3cccs3)C(=O)O2)cc(OC)c1OC` [F94, 4-(Thiophen-2-ylmethylene)-2-(3,4,5-trimethoxyphenyl)oxazol-5(4H)-one]: 1.9%. Consider `CC(C)(C)c1ccc(C2=NC(=Cc3ccncc3)C(=O)O2)cc1` [F41, 2-(4-(tert-butyl)phenyl)-4-(pyridin-4-ylmethylene)oxazol-5(4H)-one], for which the inhibition at 30 µM is 27.5%.

For the compound `O=C(O)C(=Cc1cccs1)NC(=O)c1ccc(Br)cc1` [G19, 2-(4-Bromobenzamido)-3-(thiophen-2-yl)acrylate], the inhibition at 30 µM is 3.9%. The same measure, in the same setting: for `CC(=O)Oc1ccc(C=C2N=C(c3ccc(C(C)(C)C)cc3)OC2=O)cc1` [F58, 4-((2-(4-(tert-butyl)phenyl)-5-oxooxazol-4 (5H)-ylidene)methyl)phenylacetate] the value was 2.5%; for `CCCCc1ccc(C(=O)NC(=Cc2ccsc2)C(=O)O)cc1` [G29], 81.7%. With `Cc1[nH]c2ccccc2c1C=C1N=C(c2ccc(C(C)(C)C)cc2)OC1=O` [F3, 2-(4-(tert-butyl)phenyl)-4-((2-methyl-1H-indol-3-yl1)methylene)oxazol-5(4H)-one], the inhibition at 30 µM worked out at 4.3%. The same measure, in the same setting: the same measure for `O=C1OC(c2ccc3ccccc3c2)=NC1=Cc1cccs1` [F52, 2-(Naphthalen-2-yl)-4-(thiophen-2-ylmethylene)oxazol-5(4H)-one]: 4.1%; for `COC(=O)C(=Cc1ccco1)NC(=O)c1ccc(Br)cc1` [G20, Methyl 2-(4-bromobenzamido)-3-(furan-2-yl)acrylate]: 3.4%; for `CC(=O)n1cc(C=C2N=C(c3ccc(C(C)(C)C)cc3)OC2=O)c2ccccc21` [F81, 4-((1-Acetyl-1H-indol-3-yl)methylene)-2-(4-(tert-butyl)phenyl)oxazol-5 (4H)-one]: 3.4%. Still for that read-out and setting: the same measure for `COc1ccccc1C1=NC(=Cc2cccs2)C(=O)O1` [F34, 2-(2-Methoxyphenyl)-4-(thiophen-2-ylmethylene)oxazol-5 (4H)-one]: 82.8%; for `Cc1ncsc1C=C1N=C(c2ccc(C(C)(C)C)cc2)OC1=O` [F8, 2-(4-(tert-butyl)phenyl)-4-((4-methylthiazol-5-yl)methylene)oxazol-5 (4H)-one]: 72.5%; for `CC(C)Cc1ccc(C2=NC(=Cc3cccs3)C(=O)O2)cc1` [F14, 2-(4-Isobutylphenyl)-4-(thiophen-2-ylmethylene)oxazol-5 (4H)-one]: 33.1%. With `Cn1cc(C=C(NC(=O)c2ccc(C(C)(C)C)cc2)C(=O)O)cn1` [G10, 2-(4-(tert-butyl)benzamido)-3-(1-methyl-1H-pyrazol-4-yl)acrylate], the inhibition at 30 µM amounted to 4.3%. Still for that read-out and setting: for `N#Cc1ccc(C2=NC(=Cc3cccs3)C(=O)O2)cc1` [F5, 4-(5-Oxo-4-(thiophen-2-ylmethylene)-4,5-dihydrooxazol-2-yl)benzonitrile] the value was 3.5%.

As for `CC(C)Cc1ccc(C(=O)NC(=Cc2ccc[nH]2)C(=O)O)cc1` [G26, 2-(4-Isobutylbenzamido)-3-(1H-pyrrol-2-yl)acrylate], the inhibition at 30 µM was found to be 85.6%.

The same assay, now with this note: compounds showing pendrin inhibitory activity of 50% or more at 30 μM; read-out: IC50.
Take `CC(C)NS(=O)(=O)c1ccc(C2=NC(=Cc3cccs3)C(=O)O2)cc1` [F36, N-isopropyl-4-(5-oxo-4-(thiophen-2-ylmethylene)-4,5-dihydrooxazol-2-yl)benzene sulfonamide]: the IC50 came out at 14.8 ± 2.01 µM.

`CCCc1ccc(C2=NC(=Cc3ccc[nH]3)C(=O)O2)cc1` [F143, 4-((1H-pyrrol-2-yl)methylene)-2-(4-propylphenyl)oxazol-5(4H)-one]: the IC50 was determined as 5.3 ± 0.69 µM. Consider `CCCCc1ccc(C(=O)NC(=Cc2ccsc2)C(=O)O)cc1` [G29], for which the IC50 worked out at 16.7 ± 1.87 µM. Turning to `COc1ccccc1C1=NC(=Cc2cccs2)C(=O)O1` [F34, 2-(2-Methoxyphenyl)-4-(thiophen-2-ylmethylene)oxazol-5 (4H)-one], the IC50 came out at 8.6 ± 0.84 µM. On the same count and under the same terms, for `Cc1ncsc1C=C1N=C(c2ccc(C(C)(C)C)cc2)OC1=O` [F8, 2-(4-(tert-butyl)phenyl)-4-((4-methylthiazol-5-yl)methylene)oxazol-5 (4H)-one] the value was 20.5 ± 1.69 µM; for `CC(C)Cc1ccc(C(=O)NC(=Cc2ccc[nH]2)C(=O)O)cc1` [G26, 2-(4-Isobutylbenzamido)-3-(1H-pyrrol-2-yl)acrylate], 10.2 ± 1.38 µM.

The IC50 is the point on the concentration scale where inhibition reaches its midpoint.
